{"source": "patent US10519119B2", "about": "“Nicotinic acid derivatives, their preparation and the use thereof” (XIAMEN INSTITUTE OF RARE EARTH MATERIALS, priority 2017, dated 2019)", "key": {"[1]": {"test_system": "colorectal cancer cell line HCT-116", "assay": "MTT test of activity in inhibiting colorectal cancer cell line HCT-116", "type": "cell-based, human", "conditions": "for inhibitory activity on colorectal cancer cell line HCT116: statement in words; for IC50: Homo sapiens, HCT-116 cells, MTT method, same procedure as A549", "description": "[The procedure below names another cell line; the source lists this cell line under the same test.] (§1) The specific test process was as follows:\n(§2) (1) The lung cancer cell line A549 was plated in a 96-well plate and cultured in 100 μL medium. Until the cells were grown to 90%, 1 μL of the drug (i.e., the above example compounds) was added to the wells, each drug was tested for 8 different concentrations (the initial concentration of the drug, 50 μM, 5 μM, 500 nM, 50 nM, 5 nM, […], respectively), and each concentration of drug was experimented in 3 wells. After cultivation for 24 h, 20 μL of the already formulated 5 mg/mL MTT solution was added to each well, and the medium was aspirated after 4 hours, 150 μL DMSO was added to each well and its optical density (OD) value was measured at a wavelength of 595 nm. The negative control was DMSO.\n(§3) The IC50 value was calculated by GraphPad Prism5 software."}, "[2]": {"test_system": "breast cancer cell line MCF-7", "assay": "MTT test of activity in inhibiting breast cancer cell line MCF-7", "type": "cell-based, human", "conditions": "for inhibitory activity on breast cancer cell line MCF-7: statement in words; for IC50: Homo sapiens, MCF7, MCF-7 cells, MTT method, same procedure as A549", "description": "[The procedure below names another cell line; the source lists this cell line under the same test.] as §1, §2, §3"}, "[3]": {"test_system": "human lung cancer cell line A549", "assay": "MTT test of activity in inhibiting human lung cancer cell A549", "type": "cell-based", "conditions": "for IC50: Homo sapiens, A549 cells, MTT method, cultivation 24 h with drug, OD at 595 nm; for inhibitory activity on lung cancer cell line A549: statement in words", "description": "as §1, §2, §3"}}}
{"smiles": "O=C(OCc1cc(-c2ccc(Cl)cc2)no1)c1cc(Cl)cnc1Cl", "note": "[YP-51]", "values": [{"measurement": "inhibitory activity on colorectal cancer cell line HCT116", "setting": "[1]", "value": "strong inhibitory activity"}, {"measurement": "inhibitory activity on breast cancer cell line MCF-7", "setting": "[2]", "value": "strong inhibitory activity"}, {"measurement": "IC50", "setting": "[3]", "value": 187, "unit": "µM"}, {"measurement": "inhibitory activity on lung cancer cell line A549", "setting": "[3]", "value": "strong inhibitory activity"}]}
{"smiles": "O=C(OCc1cc(-c2ccc(Br)cc2)no1)c1ccc(C(F)(F)F)nc1", "note": "[YP-73]", "values": [{"measurement": "inhibitory activity on colorectal cancer cell line HCT116", "setting": "[1]", "value": "strong inhibitory activity"}, {"measurement": "IC50", "setting": "[2]", "value": 43, "unit": "µM"}, {"measurement": "inhibitory activity on breast cancer cell line MCF-7", "setting": "[2]", "value": "strong inhibitory activity"}, {"measurement": "IC50", "setting": "[3]", "value": 207, "unit": "µM"}, {"measurement": "inhibitory activity on lung cancer cell line A549", "setting": "[3]", "value": "strong inhibitory activity"}]}
{"smiles": "COc1ccc(-c2cc(COC(=O)c3ccc(C(F)(F)F)nc3)on2)cc1", "note": "[YP-63]", "values": [{"measurement": "IC50", "setting": "[1]", "value": 287, "unit": "µM"}, {"measurement": "inhibitory activity on colorectal cancer cell line HCT116", "setting": "[1]", "value": "strong inhibitory activity"}, {"measurement": "IC50", "setting": "[2]", "value": 132, "unit": "µM"}, {"measurement": "inhibitory activity on breast cancer cell line MCF-7", "setting": "[2]", "value": "strong inhibitory activity"}, {"measurement": "IC50", "setting": "[3]", "value": 154, "unit": "µM"}, {"measurement": "inhibitory activity on lung cancer cell line A549", "setting": "[3]", "value": "strong inhibitory activity"}]}
{"smiles": "Cc1nc(C(F)(F)F)ccc1C(=O)OCc1cc(-c2ccc(Cl)cc2)no1", "note": "[YP-89]", "values": [{"measurement": "IC50", "setting": "[1]", "value": 279, "unit": "µM"}, {"measurement": "inhibitory activity on colorectal cancer cell line HCT116", "setting": "[1]", "value": "strong inhibitory activity"}, {"measurement": "IC50", "setting": "[2]", "value": 124, "unit": "µM"}, {"measurement": "inhibitory activity on breast cancer cell line MCF-7", "setting": "[2]", "value": "strong inhibitory activity"}, {"measurement": "IC50", "setting": "[3]", "value": 896, "unit": "µM"}, {"measurement": "inhibitory activity on lung cancer cell line A549", "setting": "[3]", "value": "strong inhibitory activity"}]}
{"smiles": "Cc1ccc(-c2cc(COC(=O)c3ccc(C(F)(F)F)nc3C)on2)cc1", "note": "[YP-78]", "values": [{"measurement": "IC50", "setting": "[1]", "value": 72.5, "unit": "µM"}, {"measurement": "inhibitory activity on colorectal cancer cell line HCT116", "setting": "[1]", "value": "strong inhibitory activity"}, {"measurement": "IC50", "setting": "[2]", "value": 160, "unit": "µM"}, {"measurement": "inhibitory activity on breast cancer cell line MCF-7", "setting": "[2]", "value": "strong inhibitory activity"}, {"measurement": "IC50", "setting": "[3]", "value": 198, "unit": "µM"}, {"measurement": "inhibitory activity on lung cancer cell line A549", "setting": "[3]", "value": "strong inhibitory activity"}]}
{"smiles": "COc1ccc(-c2cc(COC(=O)c3cc(Cl)cnc3Cl)on2)cc1", "note": "[YP-44]", "values": [{"measurement": "IC50", "setting": "[1]", "value": 1640, "unit": "µM"}, {"measurement": "inhibitory activity on colorectal cancer cell line HCT116", "setting": "[1]", "value": "strong inhibitory activity"}, {"measurement": "IC50", "setting": "[2]", "value": 149, "unit": "µM"}, {"measurement": "inhibitory activity on breast cancer cell line MCF-7", "setting": "[2]", "value": "strong inhibitory activity"}, {"measurement": "IC50", "setting": "[3]", "value": 172, "unit": "µM"}, {"measurement": "inhibitory activity on lung cancer cell line A549", "setting": "[3]", "value": "strong inhibitory activity"}]}
{"smiles": "O=C(OCc1cc(-c2ccc(Cl)cc2)no1)c1ccc(Oc2ccccc2)nc1", "note": "[YP-108]", "values": [{"measurement": "inhibitory activity on colorectal cancer cell line HCT116", "setting": "[1]", "value": "strong inhibitory activity"}, {"measurement": "IC50", "setting": "[2]", "value": 112, "unit": "µM"}, {"measurement": "inhibitory activity on breast cancer cell line MCF-7", "setting": "[2]", "value": "strong inhibitory activity"}, {"measurement": "IC50", "setting": "[3]", "value": 241, "unit": "µM"}, {"measurement": "inhibitory activity on lung cancer cell line A549", "setting": "[3]", "value": "strong inhibitory activity"}]}
